Structures can show the parent of a compound that is named as a salt.
These compounds were tested on MT2 (assay: Inhibitory concentration which prevents the spread of HIV-1 IIIB infection in MT2 T-lymphoid cells). Conditions: Homo sapiens.
Assay type: functional, cell-based

Question: How did the IC50 turn out when CCNc1cccnc1N1CCN(C(=O)c2cc3cc(OC)ccc3[nH]2)CC1 [ATEVIRDINE MESYLATE] was run?
Answer: 1.59 µM

Question: Which IC50 does the source give for O=C1c2ccc(Cl)cc2[C@@]2(c3ccccc3)SCCN12 here?
Answer: 0.074 µM

Question: Which IC50 does the source give for Cc1cccc([C@]23SCCN2C(=O)c2ccccc23)c1 here?
Answer: 0.051 µM

Question: CC(C)=CCN1Cc2cccc3[nH]c(=S)n(c23)C[C@@H]1C was tested. Which IC50 did it give?
Answer: 0.217 µM

Question: How did the IC50 turn out when Cc1ccnc(C23SCCN2C(=O)c2cccnc23)c1 (stereo not given) was run?
Answer: 7.8 µM

Question: Which IC50 does the source give for CCc1cc(NCc2nc3c(Cl)ccc(Cl)c3o2)c(O)nc1C [L-697661] here?
Answer: 0.08 µM

Question: How did the IC50 turn out when O=C1c2ccccc2[C@@]2(c3cccc4ccccc34)SCCN12 was run?
Answer: 0.046 µM

Question: Which IC50 does the source give for Cc1cc(C)cc([C@]23SCCN2C(=O)c2ccccc23)c1 here?
Answer: 0.01 µM

Question: How did the IC50 turn out when O=C1c2ccccc2[C@@]2(c3ccccc3)SCCN12 was run?
Answer: 0.392 µM

Question: For Cc1ccnc2c1NC(=O)c1cccnc1N2C1CC1 [NEVIRAPINE], which IC50 is on record?
Answer: 0.303 µM

The compounds below were run against Human immunodeficiency virus type 1 reverse transcriptase (Human immunodeficiency virus 1, UniProt Q72547) (assay: Inhibitory activity against HIV-1 reverse transcriptase (HIV-RT)). Conditions: not given.

Question: How did the IC50 turn out when O=C1c2ccccc2C2(c3ccccn3)SCCN12 (stereo not given) was run?
Answer: 5.85 µM

Question: Which IC50 does the source give for O=C1c2ccccc2C2(c3ccccc3)N1CCS2(=O)=O (stereo not given) here?
Answer: > 10 µM

Question: O=C1c2cc(Cl)ccc2C2(c3ccccc3)SCCN12 (stereo not given) was tested. Which IC50 did it give?
Answer: 24 µM

Question: With O=C1c2ccccc2C2(c3ccc(Cl)cc3)SCCN12 (stereo not given) as the compound, how does the IC50 read?
Answer: 4 µM

Question: For O=C1c2c(ccc3ccccc23)C2(c3ccccc3)SCCN12 (stereo not given), which IC50 is on record?
Answer: > 100 µM

Question: Which IC50 does the source give for O=C1c2ccc(Cl)cc2[C@@]2(c3ccccc3)SCCN12 here?
Answer: 0.09 µM

Question: Which IC50 does the source give for COc1ccc2c(c1)C(=O)N1CCSC21c1ccccc1 (stereo not given) here?
Answer: 4 µM

Question: Which IC50 does the source give for Cc1cccc([C@]23SCCN2C(=O)c2ccccc23)c1 here?
Answer: 0.035 µM

Question: O=C1c2ccccc2C2(c3cccc(C(F)(F)F)c3)SCCN12 (stereo not given) was tested. Which IC50 did it give?
Answer: 1.05 µM

Question: How did the IC50 turn out when COc1cccc(C23SCCN2C(=O)c2ccccc23)c1 (stereo not given) was run?
Answer: 0.97 µM

Question: Cc1ccc2c(c1)C(=O)N1CCSC21c1ccccc1 (stereo not given) was tested. Which IC50 did it give?
Answer: 10 µM

Question: With Cc1cccc(C23SCCN2C(=O)c2cccnc23)n1 (stereo not given) as the compound, how does the IC50 read?
Answer: 6.6 µM

Question: CCc1cccc(C23SCCN2C(=O)c2ccccc23)c1 (stereo not given) was tested. Which IC50 did it give?
Answer: 1.1 µM

Question: With O=C1c2ccccc2C2(c3ccccc3)SCCN12 (stereo not given) as the compound, how does the IC50 read?
Answer: 0.7 µM

Question: C[C@@H]1COC2(c3ccccc3)c3ccccc3C(=O)N12 (stereo not given in full) was tested. Which IC50 did it give?
Answer: 40 µM

Question: How did the IC50 turn out when O=C1c2cccc(Cl)c2C2(c3ccccc3)SCCN12 (stereo not given) was run?
Answer: 0.29 µM

Question: Which IC50 does the source give for Cc1ccnc(C23SCCN2C(=O)c2cccnc23)c1 (stereo not given) here?
Answer: 4.6 µM

Question: O=C1c2ccccc2C2(c3ccccc3)SCCCN12 (stereo not given) was tested. Which IC50 did it give?
Answer: 2.2 µM

Question: How did the IC50 turn out when N#Cc1cccc(C23SCCN2C(=O)c2ccccc23)c1 (stereo not given) was run?
Answer: 1.81 µM

Question: How did the IC50 turn out when O=C1c2ccc([N+](=O)[O-])cc2C2(c3ccccc3)SCCN12 (stereo not given) was run?
Answer: 10 µM

Question: For CCc1cc(NCc2nc3c(Cl)ccc(Cl)c3o2)c(O)nc1C [L-697661], which IC50 is on record?
Answer: 0.001 µM

Question: How did the IC50 turn out when Cc1ccc(C23SCCN2C(=O)c2ccccc23)cc1C (stereo not given) was run?
Answer: 0.39 µM

Question: Cc1cc(C)cc(C23SCCN2C(=O)c2ccccc23)c1 (stereo not given) was tested. Which IC50 did it give?
Answer: 0.084 µM

Question: For O=C1c2ccccc2C2(c3cccc([N+](=O)[O-])c3)SCCN12 (stereo not given), which IC50 is on record?
Answer: 0.86 µM

Question: C[C@H]1CN2C(=O)c3ccccc3C2(c2ccccc2)O1 (stereo not given in full) was tested. Which IC50 did it give?
Answer: > 100 µM

Question: Which IC50 does the source give for O=C(O)[C@H]1CSC2(c3ccccc3)c3ccccc3C(=O)N12 (stereo not given in full) here?
Answer: > 100 µM

Question: For O=C1c2ccccc2[C@@]2(c3cccc4ccccc34)SCCN12, which IC50 is on record?
Answer: 0.15 µM

Question: Which IC50 does the source give for O=C1c2ccccc2C2(c3cccc4ccccc34)SCCN12 (stereo not given) here?
Answer: 0.13 µM

Question: How did the IC50 turn out when O=C1c2cccnc2C2(c3ccccc3)SCCN12 (stereo not given) was run?
Answer: 3.45 µM

Question: With COC(=O)[C@H]1CSC2(c3ccccc3)c3ccccc3C(=O)N12 (stereo not given in full) as the compound, how does the IC50 read?
Answer: 0.22 µM

Question: How did the IC50 turn out when Cc1cc(C)cc([C@]23SCCN2C(=O)c2ccccc23)c1 was run?
Answer: 0.016 µM

Question: Which IC50 does the source give for O=C1c2ccccc2C2(c3ccccc3)Sc3ccccc3CN12 (stereo not given) here?
Answer: 40 µM

Question: CC(C)c1ccc(C23SCCN2C(=O)c2ccccc23)cc1 (stereo not given) was tested. Which IC50 did it give?
Answer: 10 µM

Question: Which IC50 does the source give for O=C1c2ccccc2C2(c3cccnc3)SCCN12 (stereo not given) here?
Answer: 28 µM

Question: How did the IC50 turn out when Cc1ccc(C)c(C23SCCN2C(=O)c2ccccc23)c1 (stereo not given) was run?
Answer: 0.97 µM

Question: Which IC50 does the source give for NC(=O)[C@H]1CSC2(c3ccccc3)c3ccccc3C(=O)N12 (stereo not given in full) here?
Answer: 59 µM

Question: O=C1c2cc(Cl)c(Cl)cc2C2(c3ccccc3)SCCN12 (stereo not given) was tested. Which IC50 did it give?
Answer: 4.48 µM

Question: For O=C1c2ccccc2C2(c3ccccc3)CCCCN12 (stereo not given), which IC50 is on record?
Answer: 75.5 µM

Question: With O=C1c2ccccc2C2(c3ccco3)SCCN12 (stereo not given) as the compound, how does the IC50 read?
Answer: 1.35 µM

Question: How did the IC50 turn out when O=C1c2ccccc2C2(c3ccccc3)CCCN12 (stereo not given) was run?
Answer: 15 µM

Question: O=C1c2ccccc2[C@]2(c3ccccc3)SCCN12 was tested. Which IC50 did it give?
Answer: 39.6 µM

Question: How did the IC50 turn out when O=C1c2ccccc2C2(c3ccc[nH]3)SCCN12 (stereo not given) was run?
Answer: > 100 µM

Question: With O=C1c2ccccc2C2(c3ccccc3)N1CC[S+]2[O-] (stereo not given) as the compound, how does the IC50 read?
Answer: 1.45 µM

Question: O=C1c2ccccc2C2(c3c4ccccc4cc4ccccc34)SCCN12 (stereo not given) was tested. Which IC50 did it give?
Answer: 0.9 µM

Question: How did the IC50 turn out when O=C1c2ccccc2C2(c3cc(Cl)cc(Cl)c3)SCCN12 (stereo not given) was run?
Answer: 0.59 µM

Question: S=C1c2ccccc2C2(c3ccccc3)SCCN12 (stereo not given) was tested. Which IC50 did it give?
Answer: 3.5 µM

Question: Which IC50 does the source give for Cc1ccc2c(c1)C1(c3ccccc3)SCCN1C2=O (stereo not given) here?
Answer: 0.72 µM

Question: How did the IC50 turn out when O=C1c2ccccc2C2(c3ccccc3)NCCCN12 (stereo not given) was run?
Answer: > 10 µM

Question: For O=C1c2ccccc2C2(c3cccs3)SCCN12 (stereo not given), which IC50 is on record?
Answer: 2.65 µM

Question: For O=C1c2ccccc2C2(c3ccc(Cl)c(Cl)c3)SCCN12 (stereo not given), which IC50 is on record?
Answer: 4 µM

Question: O=C1c2ccccc2[C@@]2(c3ccccc3)SCCN12 was tested. Which IC50 did it give?
Answer: 0.28 µM

Question: How did the IC50 turn out when COc1ccc2c(c1)C1(c3ccccc3)SCCN1C2=O (stereo not given) was run?
Answer: 3.6 µM

Question: For O=C1c2cccnc2C2(c3ccccn3)SCCN12 (stereo not given), which IC50 is on record?
Answer: 23 µM

Question: With CC(C)c1cccc(C23SCCN2C(=O)c2ccccc23)c1 (stereo not given) as the compound, how does the IC50 read?
Answer: 2.1 µM

Question: For O=C1c2ccccc2C2(c3ccncc3)SCCN12 (stereo not given), which IC50 is on record?
Answer: > 30 µM

Question: For Cc1ccc(C23SCCN2C(=O)c2ccccc23)cc1 (stereo not given), which IC50 is on record?
Answer: 0.77 µM

Question: For O=C1c2ccccc2C2(c3ccccc3)OCCCN12 (stereo not given), which IC50 is on record?
Answer: 51 µM

Question: O=C1c2ccncc2C2(c3ccccc3)SCCN12 (stereo not given) was tested. Which IC50 did it give?
Answer: 17 µM

Question: With O=C1c2ccccc2C2(c3cccc4c3CCC4)SCCN12 (stereo not given) as the compound, how does the IC50 read?
Answer: 0.9 µM

Question: Which IC50 does the source give for Cc1cccc(C23SCCN2C(=O)c2ccccc23)n1 (stereo not given) here?
Answer: 4.1 µM

Question: With O=C1c2ncccc2C2(c3ccccc3)SCCN12 (stereo not given) as the compound, how does the IC50 read?
Answer: > 100 µM

Question: COc1ccc(C23SCCN2C(=O)c2ccccc23)cc1 (stereo not given) was tested. Which IC50 did it give?
Answer: > 30 µM

Question: For O=C1c2ccc(Cl)cc2C2(c3ccccc3)SCCN12 (stereo not given), which IC50 is on record?
Answer: 0.19 µM

Question: For Nc1ccc2c(c1)C1(c3ccccc3)SCCN1C2=O (stereo not given), which IC50 is on record?
Answer: 4.5 µM

Question: For C[C@H]1COC2(c3ccccc3)c3ccccc3C(=O)N12 (stereo not given in full), which IC50 is on record?
Answer: 73 µM

Question: With O=C1c2ccccc2C2(c3ccccc3)OCCN12 (stereo not given) as the compound, how does the IC50 read?
Answer: 6.1 µM

Question: For C[C@@H]1CN2C(=O)c3ccccc3C2(c2ccccc2)O1 (stereo not given in full), which IC50 is on record?
Answer: 37.6 µM

Question: With O=C1c2ccc(C(F)(F)F)cc2C2(c3ccccc3)SCCN12 (stereo not given) as the compound, how does the IC50 read?
Answer: 17.7 µM

Question: How did the IC50 turn out when O=C1c2ccc3ccccc3c2C2(c3ccccc3)SCCN12 (stereo not given) was run?
Answer: 26 µM

Question: Cc1ccnc(C23SCCN2C(=O)c2ccccc23)c1 (stereo not given) was tested. Which IC50 did it give?
Answer: 1 µM

Question: Which IC50 does the source give for Cc1ccccc1C12SCCN1C(=O)c1ccccc12 (stereo not given) here?
Answer: 6.3 µM

Question: O=C1c2cc3ccccc3cc2C2(c3ccccc3)SCCN12 (stereo not given) was tested. Which IC50 did it give?
Answer: 10 µM

Question: O=C1c2cnccc2C2(c3ccccc3)SCCN12 (stereo not given) was tested. Which IC50 did it give?
Answer: > 100 µM

Question: How did the IC50 turn out when Cc1cccc(C23SCCN2C(=O)c2ccccc23)c1C (stereo not given) was run?
Answer: 1.65 µM

Question: How did the IC50 turn out when O=C1c2ccccc2C2(c3cccc(O)c3)SCCN12 (stereo not given) was run?
Answer: 12.7 µM

Question: For Cc1cccc2c1C(=O)N1CCSC21c1ccccc1 (stereo not given), which IC50 is on record?
Answer: 8 µM

Question: With Nc1cccc(C23SCCN2C(=O)c2ccccc23)c1 (stereo not given) as the compound, how does the IC50 read?
Answer: 4.6 µM

Question: How did the IC50 turn out when O=C1c2ccccc2C2(c3ccccc3)NCCN12 (stereo not given) was run?
Answer: > 100 µM

Question: With O=C1c2ccccc2C2(c3cccc(Cl)c3)SCCN12 (stereo not given) as the compound, how does the IC50 read?
Answer: 0.14 µM

Question: For Cc1cccc(C23SCCN2C(=O)c2ccccc23)c1 (stereo not given), which IC50 is on record?
Answer: 0.035 µM

Source: ChEMBL document CHEMBL1126780, “Selective non-nucleoside HIV-1 reverse transcriptase inhibitors. New 2,3-dihydrothiazolo[2,3-a]isoindol-5(9bH)-ones and related compounds with anti-HIV-1 activity” (J Med Chem, 1993)
